target: Erk1 (Homo sapiens (Human), UniProt P27361); test: Protein Mass Modification Assay (intact protein MALDI); format: binding
Outline: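 Percent covalent modification comes from the intact-protein MALDI centroid mass shift, treated versus control, divided by compound MW. Before analysis, human Erk1 was exposed to compound at 10-fold excess over protein for 60 min at room temperature.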

Erk1, sequence (P27361 whole entry, looked up): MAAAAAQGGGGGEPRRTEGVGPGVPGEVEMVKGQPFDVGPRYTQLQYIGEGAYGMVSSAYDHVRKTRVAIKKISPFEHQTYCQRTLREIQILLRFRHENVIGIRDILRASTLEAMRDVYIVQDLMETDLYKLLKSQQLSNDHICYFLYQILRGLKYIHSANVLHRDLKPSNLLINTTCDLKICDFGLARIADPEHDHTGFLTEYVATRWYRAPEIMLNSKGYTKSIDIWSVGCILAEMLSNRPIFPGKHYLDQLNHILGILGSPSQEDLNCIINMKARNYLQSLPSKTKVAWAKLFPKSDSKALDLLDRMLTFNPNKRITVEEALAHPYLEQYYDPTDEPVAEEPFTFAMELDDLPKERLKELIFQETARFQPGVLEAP

| SMILES | ERK1 Mass Mod (%) |
| --- | --- |
| C=CC(=O)Nc1ccccc1Nc1nc(Nc2ccc(F)cc2OC)ncc1Cl [Compound I-210, N-(2-((5-chloro-2-((4-fluoro-2-methoxyphenyl)amino)pyrimidin-4-yl)amino)phenyl)acrylamide] | F (provided a mass modification of 31-69%) |
| C=CC(=O)Nc1ccccc1Nc1nc(Nc2ccc(N3CCC[C@@H]3C(N)=O)cc2C#N)ncc1Cl [Compound I-179, (R)-1-(4-((4-((2-acrylamidophenyl)amino)-5-chloropyrimidin-2-yl)amino)-3-cyanophenyl)pyrrolidine-2-carboxamide] | E (provided a mass modification of ≧70%) |
| C=CC(=O)Nc1ccccc1Nc1nc(Nc2ccc3c(c2OC)CCCC(=O)N3CCN2CCOCC2)ncc1Cl [Compound I-145, N-(2-((5-chloro-2-((6-methoxy-1-(2-morpholinoethyl)-2-oxo-2,3,4,5-tetrahydro-1H-benzo[b]azepin-7-yl)amino)pyrimidin-4-yl)amino)phenyl)acrylamide] | E (provided a mass modification of ≧70%) |
| C=CC(=O)Nc1ccccc1Nc1nc(N[C@H]2CCN(C(C)=O)C2)ncc1C(F)(F)F [Compound I-56, (S)—N-(2-((2-((1-Acetylpyrrolidin-3-yl)amino)-5-(trifluoromethyl)pyrimidin-4-yl)amino)phenyl)acrylamide] | F (provided a mass modification of 31-69%) |
| C=C(C)S(=O)(=O)Nc1ccccc1Nc1nc(Nc2cc(C(C)=O)ccc2C)ncc1C(F)(F)F [Compound I-97, N-(2-((2-((5-acetyl-2-methylphenyl)amino)-5-(trifluoromethyl)pyrimidin-4-yl)amino)phenyl)prop-1-ene-2-sulfonamide] | G (proived a mass modification ≦30%) |
| C=CC(=O)Nc1cc(OC)ccc1Nc1nc(Nc2ccc(N3CCC[C@H]3C(N)=O)cc2C#N)ncc1Cl [Compound I-178, (S)-1-(4-((4-((2-acrylamido-4-methoxyphenyl)amino)-5-chloropyrimidin-2-yl)amino)-3-cyanophenyl)pyrrolidine-2-carboxamide] | E (provided a mass modification of ≧70%) |
| C=CC(=O)Nc1ccccc1Nc1nc(Nc2cc(C(=O)NOC)ccc2C#N)ncc1Cl [Compound I-195, 3-((4-((2-acrylamidophenyl)amino)-5-chloropyrimidin-2-yl)amino)-4-cyano-N-methoxybenzamide] | E (provided a mass modification of ≧70%) |
| C=CC(=O)Nc1ccccc1Nc1nc(N[C@H]2CCCNC2)ncc1Cl [Compound I-126, (S)—N-(2-((5-chloro-2-(piperidin-3-ylamino)pyrimidin-4-yl)amino)phenyl) acrylamide] | E (provided a mass modification of ≧70%) |
| C=CC(=O)Nc1ccccc1Nc1nc(Nc2ccc(NC(=O)CO)cc2OC)ncc1Cl [Compound I-186, N-(2-((5-chloro-2-((4-(2-hydroxyacetamido)-2-methoxyphenyl)amino)pyrimidin-4-yl)amino)phenyl)acrylamide] | E (provided a mass modification of ≧70%) |
| C=CC(=O)Nc1ccccc1Nc1nc(Nc2cc(F)ccc2C)ncc1C(F)(F)F [Compound I-285, N-(2-((2-((5-Fluoro-2-methylphenyl)amino)-5-(trifluoromethyl)pyrimidin-4-yl)amino)phenyl)acrylamide] | E (provided a mass modification of ≧70%) |
| C=CC(=O)Nc1ccccc1Oc1nc(NC(C)(C)C)ncc1C(N)=O [Compound I-267, 4-(2-acrylamidophenoxy)-2-(tert-butylamino)pyrimidine-5-carboxamide] | E (provided a mass modification of ≧70%) |
| C=CC(=O)Nc1ccccc1Nc1nc(Nc2ccc(NS(C)(=O)=O)cc2OC)ncc1Cl [Compound I-185, N-(2-((5-chloro-2-((2-methoxy-4-(methylsulfonamido)phenyl)amino)pyrimidin-4-yl)amino)phenyl)acrylamide] | E (provided a mass modification of ≧70%) |
| C=CC(=O)Nc1ccccc1Nc1nc(NC2CCN(C(C)=O)CC2)ncc1Cl [Compound I-116, N-(2-((2-((1-acetylpiperidin-4-yl)amino)-5-chloropyrimidin-4-yl)amino)phenyl) acrylamide] | E (provided a mass modification of ≧70%) |
| C=CC(=O)Nc1cc(C)ccc1Nc1nc(Nc2cc(OC)nc(N(C)CCOC)c2)ncc1C(F)(F)F [Compound I-336, N-(2-((2-((2-methoxy-6-((2-methoxyethyl)(methyl)amino)pyridin-4-yl)amino)-5-(trifluoromethyl)pyrimidin-4-yl)amino)-5-methylphenyl)acrylamide] | E (provided a mass modification of ≧70%) |
| CC(=O)N1CCC[C@H](Nc2ncc(C(F)(F)F)c(NC3C4C=CC(C4)C3C(=O)NC#N)n2)C1 (mixture of isomers) [Compound I-25, Rac-3-((2-(((S)-1-acetylpiperidin-3-yl)amino)-5-(trifluoromethyl)pyrimidin-4-yl)-cis-amino)-N-cyanobicyclo[2.2.1]hept-5-ene-2-carboxamide] | G (proived a mass modification ≦30%) |
| C=CC(=O)Nc1ccccc1Nc1nc(N[C@@H]2CCC[C@H](C(=O)NOC)C2)ncc1C(F)(F)F (racemic) [Compound I-3, Rac-cis-3-((4-((2-acrylamidophenyl)amino)-5-(trifluoromethyl)pyrimidin-2-yl)amino)-N-methoxycyclohexanecarboxamide] | E (provided a mass modification of ≧70%) |
| C=CC(=O)Nc1cc(C(F)(F)F)ccc1Nc1nc(Nc2cc(OC)ncc2C)ncc1C(F)(F)F [Compound I-323, N-(2-((2-((2-methoxy-5-methylpyridin-4-yl)amino)-5-(trifluoromethyl)pyrimidin-4-yl)amino)-5-(trifluoromethyl)phenyl)acrylamide] | E (provided a mass modification of ≧70%) |
| C=CC(=O)Nc1cc(C)ccc1Nc1nc(Nc2cc(NCCOC)nc(OC)c2)ncc1C(F)(F)F [Compound I-294, N-(2-((2-((2-methoxy-6-((2-methoxyethyl)amino)pyridin-4-yl)amino)-5-(trifluoromethyl)pyrimidin-4-yl)amino)-5-methylphenyl)acrylamide] | E (key: E: provided a mass modification of ≧70%; F: provided a mass modification of 31-69%; G: proived a mass modification ≦30%) |
| C=CC(=O)Nc1ccccc1Nc1nc(Nc2cc(Cl)nc(OC)c2)ncc1Cl [Compound I-246, N-(2-((5-chloro-2-((2-chloro-6-methoxypyridin-4-yl)amino)pyrimidin-4-yl)amino)phenyl)acrylamide] | E (provided a mass modification of ≧70%) |
| C=CC(=O)Nc1cc(C)ccc1Nc1nc(Nc2ccnc(Cl)c2)ncc1Cl [Compound I-230, N-(2-((5-chloro-2-((2-chloropyridin-4-yl)amino)pyrimidin-4-yl)amino)-5-methylphenyl)acrylamide] | E (provided a mass modification of ≧70%) |
| C=CC(=O)Nc1ccccc1Nc1nc(N[C@@H]2CCC[C@H](C(=O)NOCCO)C2)ncc1C(F)(F)F (racemic) [Compound I-4, Rac-cis-3-((4-((2-acrylamidophenyl)amino)-5-(trifluoromethyl)pyrimidin-2-yl)amino)-N-(2-hydroxyethoxy)cyclohexanecarboxamide] | F (provided a mass modification of 31-69%) |
| C=CC(=O)Nc1cc(C)ccc1Nc1nc(Nc2cc(OC)ncc2Cl)ncc1C(F)(F)F [Compound I-351, N-(2-((2-((5-chloro-2-methoxypyridin-4-yl)amino)-5-(trifluoromethyl)pyrimidin-4-yl)amino)-5-methylphenyl)acrylamide] | F (provided a mass modification of 31-69%) |
| C=CC(=O)Nc1ccccc1Nc1nc(Nc2ccnnc2)ncc1C(F)(F)F [Compound I-293, N-(2-((2-(Pyridazin-4-ylamino)-5-(trifluoromethyl)pyrimidin-4-yl)amino)phenyl) acrylamide] | E (provided a mass modification of ≧70%) |
| C#CC(=O)N[C@@H]1CCCC[C@H]1Nc1nc(N[C@H]2CCCN(C(=O)CO)C2)ncc1C(F)(F)F [Compound I-34, N-((1R,2R)-2-((2-(((S)-1-(2-Hydroxyacetyl)piperidin-3-yl)amino)-5-(trifluoromethyl)pyrimidin-4-yl)amino)cyclohexyl)propiolamide] | F (provided a mass modification of 31-69%) |
| C=CC(=O)Nc1cc(OC)ccc1Nc1nc(Nc2ccc(N3CCCN(C(=O)OC(C)(C)C)CC3)cc2C#N)ncc1Cl [Compound I-156, tert-butyl 4-(4-((4-((2-acrylamido-4-methoxyphenyl)amino)-5-chloropyrimidin-2-yl)amino)-3-cyanophenyl)-1,4-diazepane-1-carboxylate] | E (provided a mass modification of ≧70%) |
| C=CC(=O)Nc1ccccc1Nc1nc(Nc2ccc(N(CC)C(C)=O)cc2C(F)(F)F)ncc1Cl [Compound I-320] | F (provided a mass modification of 31-69%) |
| C=CC(=O)Nc1ccccc1Nc1nc(Nc2ccc3c(c2OC)CCCC(=O)N3CCCN2CCOCC2)ncc1C(N)=O [Compound I-253, 4-((2-acrylamidophenyl)amino)-2-((6-methoxy-1-(3-morpholinopropyl)-2-oxo-2,3,4,5-tetrahydro-1H-benzo[b]azepin-7-yl)amino)pyrimidine-5-carboxamide] | F (provided a mass modification of 31-69%) |
| C=CC(=O)Nc1cc(C)ccc1Nc1nc(Nc2cc(C(C)=O)ccc2C)ncc1Cl [Compound I-239, N-(2-((2-((5-acetyl-2-methylphenyl)amino)-5-chloropyrimidin-4-yl)amino)-5-methylphenyl)acrylamide] | E (key: E: provided a mass modification of ≧70%; F: provided a mass modification of 31-69%; G: proived a mass modification ≦30%) |
| C=CC(=O)Nc1cc(C)ccc1Nc1nc(Nc2cnc(OC)cc2C)ncc1C(F)(F)F [Compound I-350, N-(2-((2-((6-methoxy-4-methylpyridin-3-yl)amino)-5-(trifluoromethyl)pyrimidin-4-yl)amino)-5-methylphenyl)acrylamide] | F (provided a mass modification of 31-69%) |

From patent US9796700B2 (Celgene CAR LLC, priority 2013, dated 2017)
